Data as given in patent publication US5225411A, “Disubstituted polymethyleneimines” (priority 1990, dated 1993).

Assays:
[1] = test system: Chinese Hamster Pulmonary Line DC-3F/AD; test: Increase in the cytotoxicity of actinomycin D on the Chinese hamster pulmonary line DC-3F/AD; assay type: cell-based; details: 4 days;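 further: DC-3F/AD is an extremely resistant cell line whose resistance factor exceeds 10,000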
From the text: The cytotoxic agent used was actinomycin D.
Line DC-3F/AD is an extremely resistant line. Its resistance factor is higher than 10,000.

line P 388/ADR 10 = test: Flow cytometry, increase in fluorescence of ADR on the line P 388/ADR 10; assay type: cell-based, murine; details: ADR 50 μM, 5 h
Experimental: (§1) By measuring that fluorescence it is possible to obtain a relative measurement of the intracellular concentration of ADR.
(§2) […] After 5 hours' incubation, the intracellular uptake of adriamycin was evaluated by FCM.
(§3) The analysis of each of the samples was carried out on a total of 10,000 cells at a speed of 1000 cells/sec.
(§4) The results were presented in the form of linear histograms of the intracellular ADR fluorescence.
(§5) Expression of the Results
(§6) For each of the histograms, the channel mean fluorescence was determined by the apparatus information system. For all experiments:
(§7) A negative control (cells without ADR) fixed the autofluorescence threshold.
(§8) A positive control (cells with ADR) determined the MEAN value=MN1.
(§9) The "test" tubes (cells with ADR and with compound) were used to determine, for each of the compounds and at each of the concentrations, the MEAN values=MN2.
(§10) The results are expressed in the form of variations from the mean fluorescence obtained for each of the "test" tubes (MN2) in relation to the mean fluorescence obtained with the […] (MNl) : VAR-MEAN=MN2 -MN1. The parameter expressed is thus the increase in the fluorescence of adriamycin in the presence of the tested compounds.

[2] = test system: murine leukaemia P 388/ADR 10; test: Evaluation of the increase in cytotoxicity of adriamycin on the line P 388/ADR-10 in vitro (reversion factor); assay type: cell-based; details: adriamycin, P 388/ADR-10, 48 h, TOX = toxic
Experimental: In this study, the cytotoxicity of adriamycin was measured in the absence and in the presence of the reversing compound.
The compounds tested for their capacity to reverse MDR are added at the same time as the cytotoxic agent. The cells are then incubated for 48 hours.

line DC-3F/AD = test: Flow cytometry, increase in fluorescence of ADR on the line DC-3F/AD; assay type: cell-based, Chinese Hamster; details: ADR 50 μM, 5 h
Experimental: as §1, §2, §3, §4, §5, §6, §7, §8, §9, §10

SMILES	Reversion Factor (RF) ([1]; compound 5 μM)	Reversion Factor (RF) ([1]; compound 10 μM)	Reversion Factor (RF) ([1]; compound 20 μM)	Increase in fluorescence of ADR (VAR-MEAN = MN2 - MN1) (line P 388/ADR 10; compound 2 μM)	Increase in fluorescence of ADR (VAR-MEAN = MN2 - MN1) (line P 388/ADR 10; compound 5 μM)	Increase in fluorescence of ADR (VAR-MEAN = MN2 - MN1) (line P 388/ADR 10; compound 10 μM)	Increase in fluorescence of ADR (VAR-MEAN = MN2 - MN1) (line P 388/ADR 10; compound 20 μM)	Reversion Factor (RF) ([2]; compound 2.5 μM)	Reversion Factor (RF) ([2]; compound 5 μM)	Reversion Factor (RF) ([2]; compound 10 μM)	Increase in fluorescence of ADR (VAR-MEAN = MN2 - MN1) (line DC-3F/AD; compound 2 μM)	Increase in fluorescence of ADR (VAR-MEAN = MN2 - MN1) (line DC-3F/AD; compound 5 μM)	Increase in fluorescence of ADR (VAR-MEAN = MN2 - MN1) (line DC-3F/AD; compound 10 μM)	Increase in fluorescence of ADR (VAR-MEAN = MN2 - MN1) (line DC-3F/AD; compound 20 μM)	Reversion Factor (RF) ([1]; compound 2.5 μM)
CN(C)CCCN1c2ccccc2Sc2ccc(Cl)cc21 [CHLOROPROMAZINE]	< 13	< 12	< 13	3.30	5.15	4.60	6.20	–	–	–	–	–	–	–	–
COc1ccc([C@@H]2Sc3ccccc3N(CCN(C)C)C(=O)[C@@H]2OC(C)=O)cc1 [DILTIAZEM]	< 11	< 10	< 11	3.10	6.65	13.45	23.15	–	–	–	–	–	–	–	–
OCCN(CCO)c1nc(N2CCCCC2)c2nc(N(CCO)CCO)nc(N3CCCCC3)c2n1 [DIPYRIDAMOLE]	< 12	< 11	< 12	2.35	7.55	21.75	40.00	–	–	–	–	–	–	–	–
C=CCNc1nc(NCC=C)nc(N2CCC(SCCC(c3ccccc3)c3ccccc3)CC2)n1 [Example 2, 1-[4,6-bis(allylamino)-2-s-triazinyl]-4-(3,3-diphenylpropylthio)piperidine]	17	171	–	–	–	–	–	15.4	65.1	86.4	0.2	10.4	25.1	35.0	–
C=CCNc1nc(NCC=C)nc(N2CCC(N(C)CC(c3ccccc3)c3ccccc3)CC2)n1 [Example 4, 1-[4,6-bis(allylamino)-2-s-triazinyl)-4-[N-(2,2-di-phenylethyl)-N-methylamino]piperidine]	218	1256	–	–	–	–	–	34.7	32.3	171.1	12.3	24.1	41.9	49.0	–
C=CCNc1nc(NCCC)nc(NC2CCN(CC(c3ccccc3)c3ccccc3)CC2)n1 [Example 11, 4-(4-allylamino-6-propylamino-2-s-triazinylamino)-1-(2,2-diphenylethyl)piperidine]	281	926	–	–	–	–	–	87	65.2	TOX	12.6	18.9	29.9	40.5	–
Fc1ccc(C(c2ccc(F)cc2)N2CCN(C/C=C/c3ccccc3)CC2)cc1 [FLUNARIZINE]	< 13	16	TOX	7.35	10.10	19.90	41.00	–	–	25	–	–	–	–	–
COC(=O)C1=C(C)NC(C)=C(C(=O)OC)C1c1ccccc1[N+](=O)[O-] [NIFEDIPINE]	–	–	–	0.00	0.80	5.95	3.40	–	–	–	–	–	–	–	–
c1ccc2c(c1)Nc1ccccc1S2 [PHENOTHIAZINE]	< 12	< 12	< 12	0.00	0.00	0.00	0.00	9.4	23.1	–	–	–	–	–	–
O=c1[nH]c2ccccc2n1C1CCN(CCCC(c2ccc(F)cc2)c2ccc(F)cc2)CC1 [PIMOZIDE]	28	78	TOX	25.60	49.42	73.13	73.64	–	–	–	5.85	8.85	15.65	21.60	< 10
CC(=O)[C@H]1CC[C@H]2[C@@H]3CCC4=CC(=O)CC[C@]4(C)[C@H]3CC[C@]12C [PROGESTERONE]	< 10	< 10	13	1.85	1.00	6.85	11.80	–	1.7	2.5	–	–	–	–	–
CCN(CC)CCCC(C)Nc1c2ccc(Cl)cc2nc2ccc(OC)cc12 (stereo not drawn) [QUINACRINE]	< 13	< 12	TOX	11.83	15.73	27.73	52.77	–	–	–	2.00	10.5	19.1	25.8	–
C=C[C@H]1C[N@@]2CC[C@H]1C[C@@H]2[C@@H](O)c1ccnc2ccc(OC)cc12 [QUINIDINE]	< 12	< 12	< 12	6.65	12.80	22.00	29.90	–	6	17.4	–	–	–	–	–
C=C[C@H]1C[N@@]2CC[C@H]1C[C@H]2[C@H](O)c1ccnc2ccc(OC)cc12 [QUININE]	< 10	< 10	< 11	4.85	5.40	12.00	18.90	–	–	14.5	–	–	–	–	–
CN1CCN(CCCN2c3ccccc3Sc3ccc(C(F)(F)F)cc32)CC1 [TRIFLUOPERAZINE]	< 12	38	TOX	11.45	14.75	34.55	51.05	–	–	–	0.00	0.00	4.10	13.40	–
COC(=O)[C@@H]1[C@H]2C[C@H]3c4[nH]c5ccccc5c4CCN3C[C@@H]2CC[C@@H]1O [YOHIMBINE]	< 12	< 12	< 12	2.30	0.05	4.70	3.45	–	–	–	–	–	–	–	–
COc1ccc(CCN(C)CCCC(C#N)(c2ccc(OC)c(OC)c2)C(C)C)cc1OC (stereo not drawn) [reference compound]	–	–	–	9.89	21.90	39.62	56.50	–	–	–	2.00	2.60	7.55	11.45	–
